According to patent US20240109917A1 (ACTELION PHARMACEUTICALS LTD, priority 2020, published 2024):
pIC50: −log10 of the molar value.

Columns and labels:
PDGFRβ = PDGFRβ (Rattus norvegicus (Rat), UniProt Q05030); assay: PDGFRβ Cellular Assay (PDGFRb P-Y751 HTRF in A10 cells stimulated with PDGF-BB); format: cell-based; conditions: read-out: PDGFR Cellular IC50
In short: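 Phospho-Y751 PDGFRβ was measured by HTRF in lysates of A10 rat cells. Cells received compound for 3 hours before PDGF-BB stimulation (100 ng/mL working stock).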

[1] = target: His6-TEV-PDGFRβ (557-1016) (Homo sapiens (Human), UniProt P09619); assay: PDGFRβ HTRF Assay; format: biochemical; conditions: read-out: PDGFR HTRF IC50
In short: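 HTRF KinEASE-TK readout (665/620 nm ratio) of TK-biotin substrate phosphorylation by His-tagged PDGFRβ kinase domain. Enzyme and inhibitor preincubated 30 min, then ATP/substrate added for 3 h at room temperature before 60 min EDTA quench/detection.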

[2] = target: Tb-labeled inactive PDGFRβ (Homo sapiens (Human), UniProt P09619); assay: PDGFRβ LanthaScreen Assay; format: binding; conditions: read-out: PDGFR Lantha IC50
Chain of Tb-labeled inactive PDGFRβ (P09619 33-1106): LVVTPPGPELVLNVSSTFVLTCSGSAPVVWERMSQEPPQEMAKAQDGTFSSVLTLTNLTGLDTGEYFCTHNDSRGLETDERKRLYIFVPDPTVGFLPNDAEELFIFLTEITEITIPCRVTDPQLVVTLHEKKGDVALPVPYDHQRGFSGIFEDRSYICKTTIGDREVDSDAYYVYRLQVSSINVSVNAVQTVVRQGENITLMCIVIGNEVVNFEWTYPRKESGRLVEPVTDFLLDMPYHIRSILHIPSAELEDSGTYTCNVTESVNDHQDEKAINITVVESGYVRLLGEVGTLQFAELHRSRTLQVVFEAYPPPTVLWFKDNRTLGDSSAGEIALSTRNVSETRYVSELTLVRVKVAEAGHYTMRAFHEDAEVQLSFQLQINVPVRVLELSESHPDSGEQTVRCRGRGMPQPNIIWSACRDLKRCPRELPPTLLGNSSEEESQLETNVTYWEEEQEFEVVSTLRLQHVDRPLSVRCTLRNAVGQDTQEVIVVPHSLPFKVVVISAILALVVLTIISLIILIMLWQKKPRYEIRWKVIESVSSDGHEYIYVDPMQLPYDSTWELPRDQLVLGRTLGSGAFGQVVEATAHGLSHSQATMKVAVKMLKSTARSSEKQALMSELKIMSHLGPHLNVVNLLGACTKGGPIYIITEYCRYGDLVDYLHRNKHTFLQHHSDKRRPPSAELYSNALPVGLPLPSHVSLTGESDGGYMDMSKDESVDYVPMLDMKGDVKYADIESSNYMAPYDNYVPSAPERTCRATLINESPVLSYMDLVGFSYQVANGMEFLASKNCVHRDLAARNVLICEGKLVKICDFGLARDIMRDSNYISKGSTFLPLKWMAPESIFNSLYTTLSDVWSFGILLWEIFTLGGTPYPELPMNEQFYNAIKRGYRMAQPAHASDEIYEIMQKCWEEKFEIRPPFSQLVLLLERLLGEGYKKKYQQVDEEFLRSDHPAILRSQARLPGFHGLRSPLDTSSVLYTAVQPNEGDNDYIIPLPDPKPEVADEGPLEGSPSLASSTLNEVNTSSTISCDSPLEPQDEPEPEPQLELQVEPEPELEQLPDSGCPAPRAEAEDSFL

Chain of His6-TEV-PDGFRβ (557-1016) (P09619 557-1016): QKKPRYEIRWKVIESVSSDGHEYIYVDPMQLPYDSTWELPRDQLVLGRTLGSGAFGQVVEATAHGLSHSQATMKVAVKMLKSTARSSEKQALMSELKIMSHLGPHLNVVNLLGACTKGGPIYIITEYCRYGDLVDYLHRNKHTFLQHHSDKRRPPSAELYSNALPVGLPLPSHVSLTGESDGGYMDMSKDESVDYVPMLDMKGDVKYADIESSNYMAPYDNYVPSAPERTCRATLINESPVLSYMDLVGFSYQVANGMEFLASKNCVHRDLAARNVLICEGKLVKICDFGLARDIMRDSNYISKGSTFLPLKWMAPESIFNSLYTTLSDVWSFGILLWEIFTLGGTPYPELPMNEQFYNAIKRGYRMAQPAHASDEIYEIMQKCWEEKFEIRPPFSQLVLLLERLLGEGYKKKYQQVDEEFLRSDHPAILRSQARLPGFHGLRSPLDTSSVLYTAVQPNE
Chain of PDGFRβ (Q05030 32-1097): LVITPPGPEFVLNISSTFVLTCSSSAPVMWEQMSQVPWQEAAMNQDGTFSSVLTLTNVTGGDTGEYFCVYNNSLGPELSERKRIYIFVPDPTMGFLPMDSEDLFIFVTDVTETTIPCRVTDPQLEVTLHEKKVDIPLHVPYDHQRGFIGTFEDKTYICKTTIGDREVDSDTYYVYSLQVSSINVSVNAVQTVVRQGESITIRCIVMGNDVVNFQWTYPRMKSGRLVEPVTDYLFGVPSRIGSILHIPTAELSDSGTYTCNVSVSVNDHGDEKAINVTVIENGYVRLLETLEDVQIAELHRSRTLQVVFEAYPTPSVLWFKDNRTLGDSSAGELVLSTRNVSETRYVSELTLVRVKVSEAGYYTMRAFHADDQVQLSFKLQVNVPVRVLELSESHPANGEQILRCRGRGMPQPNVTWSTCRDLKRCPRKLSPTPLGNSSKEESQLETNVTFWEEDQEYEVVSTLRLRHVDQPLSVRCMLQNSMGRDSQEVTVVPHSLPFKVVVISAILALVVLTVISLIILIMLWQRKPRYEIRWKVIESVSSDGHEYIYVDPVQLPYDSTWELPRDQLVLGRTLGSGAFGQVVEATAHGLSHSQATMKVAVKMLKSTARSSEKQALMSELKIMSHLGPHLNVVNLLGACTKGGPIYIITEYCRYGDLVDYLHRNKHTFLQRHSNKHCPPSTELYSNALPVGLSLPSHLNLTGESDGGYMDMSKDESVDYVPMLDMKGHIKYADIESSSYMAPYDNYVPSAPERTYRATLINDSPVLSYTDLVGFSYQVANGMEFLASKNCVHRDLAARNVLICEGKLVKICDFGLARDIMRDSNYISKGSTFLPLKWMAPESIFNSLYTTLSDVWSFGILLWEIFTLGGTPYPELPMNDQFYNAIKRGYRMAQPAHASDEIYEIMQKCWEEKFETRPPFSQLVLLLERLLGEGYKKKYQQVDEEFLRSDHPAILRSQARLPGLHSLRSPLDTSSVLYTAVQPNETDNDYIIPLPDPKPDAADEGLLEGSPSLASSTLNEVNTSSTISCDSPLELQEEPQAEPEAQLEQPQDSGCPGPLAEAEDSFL

Compound | pIC50 (PDGFRβ) | pIC50 [1] | pIC50 [2]
Cc1ncc(NC(=O)NCCN2CCCC2(C)C)cc1NC(=O)c1cnn2cc(-c3cnn(C)c3)sc12 [Example 38, N-(5-(3-(2-(2,2-dimethylpyrrolidin-1-yl)ethyl)ureido)-2-methyl-pyridin-3-yl)-2-(1-methyl-1H-pyrazol-4-yl)pyrazolo[5,1-b]thiazole-7-carboxamide] | 5.52 | 8.74 | 7.47
Cc1ncc(C(=O)NCCN2CCCC2(C)C)cc1NC(=O)c1cnn2cc(-c3cnn4c3OCCC4)sc12 [Example 460, 2-(6,7-dihydro-5H-pyrazolo[5,1-b][1,3]oxazin-3-yl)-N-(5-((2-(2,2-dimethylpyrrolidin-1-yl)ethyl)carbamoyl)-2-methylpyridin-3-yl)pyrazolo[5,1-b]thiazole-7-carboxamide] | 7.87 | 9.52 | 8.80
Cc1ncc(NC(=O)CN2CCCCC2)cc1NC(=O)c1cnn2cc(-c3cnn4c3OCCC4)sc12 [Example 419, 2-(6,7-dihydro-5H-pyrazolo[5,1-b][1,3]oxazin-3-yl)-N-(2-methyl-5-(2-(piperidin-1-yl)acetamido)pyridin-3-yl)pyrazolo[5,1-b]thiazole-7-carboxamide] | 8.59 | 9.52 | 8.55
Cc1ncc(NC(=O)CN2CCCC2(C)C)cc1NC(=O)c1cnn2cc(-c3cn(C)nc3C)sc12 [Example 444, 2-(1,3-Dimethyl-1H-pyrazol-4-yl)-N-(5-(2-(2,2-dimethylpyrrolidin-1-yl)acetamido)-2-methylpyridin-3-yl)pyrazolo[5,1-b]thiazole-7-carboxamide] | 8.89 | 9.70 | 8.74
Cc1ncc(NC(=O)CN2CCC23CCC3)cc1NC(=O)c1cnn2cc(-c3cnn4c3OCCC4)sc12 [Example 408, N-(5-(2-(1-azaspiro[3.3]heptan-1-yl)acetamido)-2-methylpyridin-3-yl)-2-(6,7-dihydro-5H-pyrazolo[5,1-b][1,3]oxazin-3-yl)pyrazolo[5,1-b]thiazole-7-carboxamide] | 8.77 | 9.70 | 8.74
CCOc1ncccc1-c1cn2ncc(C(=O)Nc3cc(NC(=O)CN4CC(C)(C)C4)cnc3C)c2s1 [Example 436, N-(5-(2-(3,3-Dimethylazetidin-1-yl)acetamido)-2-methylpyridin-3-yl)-2-(2-ethoxypyridin-3-yl)pyrazolo[5,1-b]thiazole-7-carboxamide] | 8.80 | 10.00 | 9.05
Cc1ncc(NC(=O)CN2CCC[C@@H]2C)cc1NC(=O)c1cnn2cc(-c3cnn4c3OCCC4)sc12 [Example 413, (S)-2-(6,7-dihydro-5H-pyrazolo[5,1-b][1,3]oxazin-3-yl)-N-(2-methyl-5-(2-(2-methylpyrrolidin-1-yl)acetamido)pyridin-3-yl)pyrazolo[5,1-b]thiazole-7-carboxamide] | 8.47 | 9.52 | 8.54
Cc1ncc(NC(=O)CNCC2CC2)cc1NC(=O)c1cnn2cc(-c3cnn4c3OCCC4)sc12 [Example 453, N-(5-(2-((cyclopropylmethyl)amino)acetamido)-2-methylpyridin-3-yl)-2-(6,7-dihydro-5H-pyrazolo[5,1-b][1,3]oxazin-3-yl)pyrazolo[5,1-b]thiazole-7-carboxamide] | 7.60 | 9.22 | 8.24
Cc1ncc(C(=O)NCCN2CC3CCC2CC3)cc1NC(=O)c1cnn2cc(-c3cnn4c3OCCC4)sc12 [Example 477, N-(5-((2-(2-azabicyclo[2.2.2]octan-2-yl)ethyl)carbamoyl)-2-methylpyridin-3-yl)-2-(6,7-dihydro-5H-pyrazolo[5,1-b][1,3]oxazin-3-yl)pyrazolo[5,1-b]thiazole-7-carboxamide] | 7.34 | 9.52 | 8.64
Cc1ncc(NC(=O)CN2CC3(COC3)C2)cc1NC(=O)c1cnn2cc(-c3cnn4c3OCCC4)sc12 [Example 411, N-(5-(2-(2-oxa-6-azaspiro[3.3]heptan-6-yl)acetamido)-2-methylpyridin-3-yl)-2-(6,7-dihydro-5H-pyrazolo[5,1-b][1,3]oxazin-3-yl)pyrazolo[5,1-b]thiazole-7-carboxamide] | 6.94 | 9.30 | 8.18
Cc1ncc(NC(=O)CC2CN(C)C2)cc1NC(=O)c1cnn2cc(-c3cnn4c3CCC4)sc12 [Example 427, 2-(5,6-dihydro-4H-pyrrolo[1,2-b]pyrazol-3-yl)-N-(2-methyl-5-(2-(1-methylazetidin-3-yl)acetamido)pyridin-3-yl)pyrazolo[5,1-b]thiazole-7-carboxamide] | < 5.70 | 8.68 | 6.83
Cc1ncc(NC(=O)CN2CCCC2(C)C)cc1NC(=O)c1cnn2cc(-c3cnn(C(C)(C)CO)c3)sc12 [Example 457, N-(5-(2-(2,2-dimethylpyrrolidin-1-yl)acetamido)-2-methylpyridin-3-yl)-2-(1-(1-hydroxy-2-methylpropan-2-yl)-1H-pyrazol-4-yl)pyrazolo[5,1-b]thiazole-7-carboxamide] | 8.40 | 9.40 | 8.47
Cc1ncc(NC(=O)CN2CCCCCC2)cc1NC(=O)c1cnn2cc(-c3cnn4c3OCCC4)sc12 [Example 420, N-(5-(2-(azepan-1-yl)acetamido)-2-methylpyridin-3-yl)-2-(6,7-dihydro-5H-pyrazolo[5,1-b][1,3]oxazin-3-yl)pyrazolo[5,1-b]thiazole-7-carboxamide] | 8.68 | 9.70 | 8.68
Cc1ncc(NC(=O)CN2CCC23CCC3)cc1NC(=O)c1cnn2cc(-c3cnn4c3COCC4)sc12 [Example 475, N-(5-(2-(1-azaspiro[3.3]heptan-1-yl)acetamido)-2-methylpyridin-3-yl)-2-(6,7-dihydro-4H-pyrazolo[5,1-c][1,4]oxazin-3-yl)pyrazolo[5,1-b]thiazole-7-carboxamide] | 8.64 | 9.70 | 8.85
COCCn1cc(-c2cn3ncc(C(=O)Nc4cc(NC(=O)CCC5CCCN5C)cnc4C)c3s2)cn1 (stereo not drawn) [Example 462, 2-(1-(2-methoxyethyl)-1H-pyrazol-4-yl)-N-(2-methyl-5-(3-(1-methylpyrrolidin-2-yl)propanamido)pyridin-3-yl)pyrazolo[5,1-b]thiazole-7-carboxamide] | 6.53 | 9.15 | 7.82
COCCn1cc(-c2cn3ncc(C(=O)Nc4cc(NC(=O)CCC5CCCN5C(C)C)cnc4C)c3s2)cn1 (stereo not drawn) [Example 463, N-(5-(3-(1-isopropylpyrrolidin-2-yl)propanamido)-2-methylpyridin-3-yl)-2-(1-(2-methoxyethyl)-1H-pyrazol-4-yl)pyrazolo[5,1-b]thiazole-7-carboxamide] | 6.11 | 9.15 | 7.96
Cc1ncc(C(=O)NCCN2CC3CCC2CC3)cc1NC(=O)c1cnn2cc(-c3cnn4c3COCC4)sc12 [Example 459, N-(5-((2-(2-azabicyclo[2.2.2]octan-2-yl)ethyl)carbamoyl)-2-methylpyridin-3-yl)-2-(6,7-dihydro-4H-pyrazolo[5,1-c][1,4]oxazin-3-yl)pyrazolo[5,1-b]thiazole-7-carboxamide] | 7.47 | 9.52 | 8.82
